Measured values taken from patent US9113629B2, “4-amino-6-(4-substituted-phenyl)-picolinates and 6-amino-2-(4-substituted-phenyl)-pyrimidine-4-carboxylates and their use as herbicides” (DOW AGROSCIENCES LLC, priority 2013, dated 2015).

Tested on: Key Grass and Sedge Weeds as well as Grass Crops
Assay: Post-emergent Test II herbicidal activity (Table 6)
Type: in vivo
Conditions: post-emergence, 336 h, CYPES: yellow nutsedge (Cyperus esculentus), 70 g ai/ha, read-out: Visual Growth Reduction (%) 14 Days After Application, CYPES
Summary of the method: (§1)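 Plants grown in Metro-Mix 360 (pH 6.0–6.8) in a greenhouse (~15 h photoperiod, 23–29 °C day) to first or second true leaf stage, then sprayed with compound in acetone/DMSO/aqueous crop-oil-surfactant carrier at 187 L/ha by track sprayer. Injury visually scored 0–100% versus untreated plants after 14 d.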

| SMILES | pest or weed control at 70 g/ha |
| --- | --- |
| C#Cc1ccc(-c2nc(C(=O)O)c(Cl)c(N)c2F)cc1 [Compound 62] | 95 to 100% |

Same assay, conditions: post-emergence, 336 h, CYPES: yellow nutsedge (Cyperus esculentus), 140 g ai/ha, read-out: Visual Growth Reduction (%) 14 Days After Application, CYPES

| SMILES | pest or weed control at 140 g/ha |
| --- | --- |
| C#Cc1ccc(-c2nc(C(=O)O)c(Cl)c(N)c2F)cc1 [Compound 62] | 95 to 100% |

Same assay, conditions: post-emergence, 336 h, DIGSA: crabgrass (Digitaria sanguinalis), 70 g ai/ha, read-out: Visual Growth Reduction (%) 14 Days After Application, DIGSA

| SMILES | pest or weed control at 70 g/ha |
| --- | --- |
| C#Cc1ccc(-c2nc(C(=O)O)c(Cl)c(N)c2F)cc1 [Compound 62] | 85 to 94% |

Same assay, conditions: post-emergence, 336 h, DIGSA: crabgrass (Digitaria sanguinalis), 140 g ai/ha, read-out: Visual Growth Reduction (%) 14 Days After Application, DIGSA

| SMILES | pest or weed control at 140 g/ha |
| --- | --- |
| C#Cc1ccc(-c2nc(C(=O)O)c(Cl)c(N)c2F)cc1 [Compound 62] | 85 to 94% |

Same assay, conditions: post-emergence, 336 h, ECHCG: barnyardgrass (Echinochloa crus-galli), 70 g ai/ha, read-out: Visual Growth Reduction (%) 14 Days After Application, ECHCG

| SMILES | pest or weed control at 70 g/ha |
| --- | --- |
| C#Cc1ccc(-c2nc(C(=O)O)c(Cl)c(N)c2F)cc1 [Compound 62] | 95 to 100% |

Same assay, conditions: post-emergence, 336 h, ECHCG: barnyardgrass (Echinochloa crus-galli), 140 g ai/ha, read-out: Visual Growth Reduction (%) 14 Days After Application, ECHCG

| SMILES | pest or weed control at 140 g/ha |
| --- | --- |
| C#Cc1ccc(-c2nc(C(=O)O)c(Cl)c(N)c2F)cc1 [Compound 62] | 95 to 100% |

Same assay, conditions: post-emergence, 336 h, ORYSA: rice (Oryza sativa), crop, 70 g ai/ha, read-out: Visual Growth Reduction (%) 14 Days After Application, ORYSA

| SMILES | pest or weed control at 70 g/ha |
| --- | --- |
| C#Cc1ccc(-c2nc(C(=O)O)c(Cl)c(N)c2F)cc1 [Compound 62] | 0 to 29% |

Same assay, conditions: post-emergence, 336 h, ORYSA: rice (Oryza sativa), crop, 140 g ai/ha, read-out: Visual Growth Reduction (%) 14 Days After Application, ORYSA

| SMILES | pest or weed control at 140 g/ha |
| --- | --- |
| C#Cc1ccc(-c2nc(C(=O)O)c(Cl)c(N)c2F)cc1 [Compound 62] | 0 to 29% |

Same assay, conditions: post-emergence, 336 h, SETFA: giant foxtail (Setaria faberi), 70 g ai/ha, read-out: Visual Growth Reduction (%) 14 Days After Application, SETFA

| SMILES | pest or weed control at 70 g/ha |
| --- | --- |
| C#Cc1ccc(-c2nc(C(=O)O)c(Cl)c(N)c2F)cc1 [Compound 62] | 95 to 100% |

Same assay, conditions: post-emergence, 336 h, SETFA: giant foxtail (Setaria faberi), 140 g ai/ha, read-out: Visual Growth Reduction (%) 14 Days After Application, SETFA

| SMILES | pest or weed control at 140 g/ha |
| --- | --- |
| C#Cc1ccc(-c2nc(C(=O)O)c(Cl)c(N)c2F)cc1 [Compound 62] | 95 to 100% |

Same assay, conditions: post-emergence, 336 h, SORVU: grain sorghum (Sorghum vulgare), 70 g ai/ha, read-out: Visual Growth Reduction (%) 14 Days After Application, SORVU

| SMILES | pest or weed control at 70 g/ha |
| --- | --- |
| C#Cc1ccc(-c2nc(C(=O)O)c(Cl)c(N)c2F)cc1 [Compound 62] | 75 to 84% |

Same assay, conditions: post-emergence, 336 h, SORVU: grain sorghum (Sorghum vulgare), 140 g ai/ha, read-out: Visual Growth Reduction (%) 14 Days After Application, SORVU

| SMILES | pest or weed control at 140 g/ha |
| --- | --- |
| C#Cc1ccc(-c2nc(C(=O)O)c(Cl)c(N)c2F)cc1 [Compound 62] | 75 to 84% |

Same assay, conditions: post-emergence, 336 h, TRZSS (wheat, Triticum aestivum), crop, 70 g ai/ha, read-out: Visual Growth Reduction (%) 14 Days After Application, TRZSS

| SMILES | pest or weed control at 70 g/ha |
| --- | --- |
| C#Cc1ccc(-c2nc(C(=O)O)c(Cl)c(N)c2F)cc1 [Compound 62] | 45 to 59% |

Same assay, conditions: post-emergence, 336 h, TRZSS (wheat, Triticum aestivum), crop, 140 g ai/ha, read-out: Visual Growth Reduction (%) 14 Days After Application, TRZSS

| SMILES | pest or weed control at 140 g/ha |
| --- | --- |
| C#Cc1ccc(-c2nc(C(=O)O)c(Cl)c(N)c2F)cc1 [Compound 62] | 45 to 59% |

Same assay, conditions: post-emergence, 336 h, ZEAMX: maize, corn (Zea mays), crop, 70 g ai/ha, read-out: Visual Growth Reduction (%) 14 Days After Application, ZEAMX

| SMILES | pest or weed control at 70 g/ha |
| --- | --- |
| C#Cc1ccc(-c2nc(C(=O)O)c(Cl)c(N)c2F)cc1 [Compound 62] | 75 to 84% |

Same assay, conditions: post-emergence, 336 h, ZEAMX: maize, corn (Zea mays), crop, 140 g ai/ha, read-out: Visual Growth Reduction (%) 14 Days After Application, ZEAMX

| SMILES | pest or weed control at 140 g/ha |
| --- | --- |
| C#Cc1ccc(-c2nc(C(=O)O)c(Cl)c(N)c2F)cc1 [Compound 62] | 85 to 94% |

Tested on: not given
Assay: not given
Conditions: not given

| melting point | SMILES |
| --- | --- |
| 142 to 147 °C (dec.) | C#Cc1ccc(-c2nc(C(=O)O)c(Cl)c(N)c2F)cc1 [Compound 62] |

Tested on: Key Broadleaf Weed and Crop Species
Assay: Post-emergent Test II herbicidal activity (Table 5)
Type: in vivo
Conditions: post-emergence, 336 h; ABUTH: velvetleaf (Abutilon theophrasti); application rate 70 g ai/ha; 14 days after application; read-out: Visual Growth Reduction (%) 14 Days After Application, ABUTH
Summary of the method: as §1

| SMILES | pest or weed control at 70 g/ha |
| --- | --- |
| C#Cc1ccc(-c2nc(C(=O)O)c(Cl)c(N)c2F)cc1 [Compound 62] | 75 to 84% |

Same assay, conditions: post-emergence, 336 h; ABUTH: velvetleaf (Abutilon theophrasti); application rate 140 g ai/ha; 14 days after application; read-out: Visual Growth Reduction (%) 14 Days After Application, ABUTH

| SMILES | pest or weed control at 140 g/ha |
| --- | --- |
| C#Cc1ccc(-c2nc(C(=O)O)c(Cl)c(N)c2F)cc1 [Compound 62] | 75 to 84% |

Same assay, conditions: post-emergence, 336 h; AMARE: redroot pigweed (Amaranthus retroflexus); application rate 70 g ai/ha; 14 days after application; read-out: Visual Growth Reduction (%) 14 Days After Application, AMARE

| SMILES | pest or weed control at 70 g/ha |
| --- | --- |
| C#Cc1ccc(-c2nc(C(=O)O)c(Cl)c(N)c2F)cc1 [Compound 62] | 95 to 100% |

Same assay, conditions: post-emergence, 336 h; BRSNN: oilseed-rape, canola (Brassica napus); application rate 70 g ai/ha; 14 days after application; read-out: Visual Growth Reduction (%) 14 Days After Application, BRSNN

| SMILES | pest or weed control at 70 g/ha |
| --- | --- |
| C#Cc1ccc(-c2nc(C(=O)O)c(Cl)c(N)c2F)cc1 [Compound 62] | 95 to 100% |

Same assay, conditions: post-emergence, 336 h; BRSNN: oilseed-rape, canola (Brassica napus); application rate 140 g ai/ha; 14 days after application; read-out: Visual Growth Reduction (%) 14 Days After Application, BRSNN

| SMILES | pest or weed control at 140 g/ha |
| --- | --- |
| C#Cc1ccc(-c2nc(C(=O)O)c(Cl)c(N)c2F)cc1 [Compound 62] | 95 to 100% |

Same assay, conditions: post-emergence, 336 h; CHEAL: lambsquarters (Chenopodium album); application rate 70 g ai/ha; 14 days after application; read-out: Visual Growth Reduction (%) 14 Days After Application, CHEAL

| SMILES | pest or weed control at 70 g/ha |
| --- | --- |
| C#Cc1ccc(-c2nc(C(=O)O)c(Cl)c(N)c2F)cc1 [Compound 62] | 85 to 94% |

Same assay, conditions: post-emergence, 336 h; CHEAL: lambsquarters (Chenopodium album); application rate 140 g ai/ha; 14 days after application; read-out: Visual Growth Reduction (%) 14 Days After Application, CHEAL

| SMILES | pest or weed control at 140 g/ha |
| --- | --- |
| C#Cc1ccc(-c2nc(C(=O)O)c(Cl)c(N)c2F)cc1 [Compound 62] | 85 to 94% |

Same assay, conditions: post-emergence, 336 h; EPHHL: wild poinsettia (Euphorbia heterophylla); application rate 70 g ai/ha; 14 days after application; read-out: Visual Growth Reduction (%) 14 Days After Application, EPHHL

| SMILES | pest or weed control at 70 g/ha |
| --- | --- |
| C#Cc1ccc(-c2nc(C(=O)O)c(Cl)c(N)c2F)cc1 [Compound 62] | 95 to 100% |

Same assay, conditions: post-emergence, 336 h; EPHHL: wild poinsettia (Euphorbia heterophylla); application rate 140 g ai/ha; 14 days after application; read-out: Visual Growth Reduction (%) 14 Days After Application, EPHHL

| SMILES | pest or weed control at 140 g/ha |
| --- | --- |
| C#Cc1ccc(-c2nc(C(=O)O)c(Cl)c(N)c2F)cc1 [Compound 62] | 95 to 100% |

Same assay, conditions: post-emergence, 336 h; HELAN: sunflower (Helianthus annuus); application rate 70 g ai/ha; 14 days after application; read-out: Visual Growth Reduction (%) 14 Days After Application, HELAN

| SMILES | pest or weed control at 70 g/ha |
| --- | --- |
| C#Cc1ccc(-c2nc(C(=O)O)c(Cl)c(N)c2F)cc1 [Compound 62] | 85 to 94% |

Same assay, conditions: post-emergence, 336 h; HELAN: sunflower (Helianthus annuus); application rate 140 g ai/ha; 14 days after application; read-out: Visual Growth Reduction (%) 14 Days After Application, HELAN

| SMILES | pest or weed control at 140 g/ha |
| --- | --- |
| C#Cc1ccc(-c2nc(C(=O)O)c(Cl)c(N)c2F)cc1 [Compound 62] | 95 to 100% |

Same assay, conditions: post-emergence, 336 h; VIOTR: wild pansy (Viola tricolor); application rate 70 g ai/ha; 14 days after application; read-out: Visual Growth Reduction (%) 14 Days After Application, VIOTR

| SMILES | pest or weed control at 70 g/ha |
| --- | --- |
| C#Cc1ccc(-c2nc(C(=O)O)c(Cl)c(N)c2F)cc1 [Compound 62] | 0 to 29% |

Same assay, conditions: post-emergence, 336 h; VIOTR: wild pansy (Viola tricolor); application rate 140 g ai/ha; 14 days after application; read-out: Visual Growth Reduction (%) 14 Days After Application, VIOTR

| SMILES | pest or weed control at 140 g/ha |
| --- | --- |
| C#Cc1ccc(-c2nc(C(=O)O)c(Cl)c(N)c2F)cc1 [Compound 62] | 0 to 29% |
